Experimental data: ChEMBL document CHEMBL5696439 (Cancer Res, 2010)
Active and inactive are the calls of the source. No cut-off for these calls is given here.

Assays:
[1] = target: Testis-specific serine/threonine-protein kinase 1 (Homo sapiens) (UniProt Q9BXA7); experiment: Inhibition of recombinant human full length His-tagged STK22D expressed in insect cells at 2 uM using Ser/Thr 04 as substrate measured after 1 hr by Z'-LYTE assay relative to control; details: Insect cell
[2] = target: Ephrin type-A receptor 4 (Homo sapiens) (UniProt P54764); experiment: Inhibition of recombinant human GST-tagged EPHA4 (616-887 residues) expressed in insect cells at 2 uM using Tyr 02 as substrate measured after 1 hr by Z'-LYTE assay relative to control; details: Insect cell
mTORC2 (Homo sapiens) = mTORC2 (Homo sapiens) (UniProt P42345+Q6R327+Q9BVC4+Q9BPZ7); details: U-87 MG, dose 0.025-2 µmol/L, time 6.0 hrs
[3] = target: Serine/threonine-protein kinase D1 (Homo sapiens) (UniProt Q15139); experiment: Inhibition of recombinant human full length GST-tagged PRKD1 expressed in insect cells at 2 uM using Ser/Thr 17 as substrate measured after 1 hr by Z'-LYTE assay relative to control; details: Insect cell
[4] = target: Misshapen-like kinase 1 (Homo sapiens) (UniProt Q8N4C8); experiment: Inhibition of recombinant human GST-tagged MINK1 (1-320 residues) expressed in insect cells at 2 uM using Ser/Thr 07 as substrate measured after 1 hr by Z'-LYTE assay relative to control; details: Insect cell
[5] = target: Calcium/calmodulin-dependent protein kinase type II subunit alpha (Homo sapiens) (UniProt Q9UQM7); experiment: Inhibition of recombinant human full-length His-tagged CAMK2A expressed in insect cells at 2 uM using Ser/Thr 04 as substrate measured after 1 hr by Z'-LYTE assay relative to control; details: Insect cell
[6] = target: Serine/threonine-protein kinase Nek2 (Homo sapiens) (UniProt P51955); experiment: Inhibition of recombinant human full length His-tagged NEK2 expressed in baculovirus expression system at 2 uM using Ser/Thr 07 as substrate measured after 1 hr by Z'-LYTE assay relative to control
A498 = experiment: cells; details: Homo sapiens, A498, 24 h
Description: Antiproliferative activity against human A498 cells assessed as cell growth inhibition incubated for 1 days by MTS assay

[7] = target: Mast/stem cell growth factor receptor Kit (Homo sapiens) (UniProt P10721); experiment: Inhibition of recombinant human His-tagged KIT (544-976 residues) expressed in insect cells at 2 uM using […] as substrate measured after 1 hr by Z'-LYTE assay relative to control
MDA-MB-361 [8] = experiment: Induction of apoptosis in human MDA-MB-361 cells assessed as induction in cell death at 10 nmol/L incubated for 48 hrs by FACS analysis relative to control; type: functional
[9] = target: Dual specificity tyrosine-phosphorylation-regulated kinase 1A (Homo sapiens) (UniProt Q13627); experiment: Inhibition of recombinant human full-length GST-tagged DYRK1A expressed in insect cells at 2 uM using Ser/Thr 18 as substrate measured after 1 hr by Z'-LYTE assay relative to control; details: Insect cell
[10] = target: Mitogen-activated protein kinase 8 (Homo sapiens) (UniProt P45983); experiment: Inhibition of recombinant human full length His-tagged MAPK8 expressed in insect cells at 2 uM using Ser/Thr 04 as substrate measured after 1 hr by Z'-LYTE assay relative to control; details: Insect cell
MDA-MB-361 [11] = experiment: Induction of apoptosis in HER2 hyperactive human MDA-MB-361 cells assessed as cell death at 0.001 to 100 micromol/L incubated for 24 hrs by FACS analysis; type: functional, cell-based; details: dose 0.001-100 µmol/L

Mitogen-activated protein kinase 8 (Homo sapiens), sequence (P45983 whole entry): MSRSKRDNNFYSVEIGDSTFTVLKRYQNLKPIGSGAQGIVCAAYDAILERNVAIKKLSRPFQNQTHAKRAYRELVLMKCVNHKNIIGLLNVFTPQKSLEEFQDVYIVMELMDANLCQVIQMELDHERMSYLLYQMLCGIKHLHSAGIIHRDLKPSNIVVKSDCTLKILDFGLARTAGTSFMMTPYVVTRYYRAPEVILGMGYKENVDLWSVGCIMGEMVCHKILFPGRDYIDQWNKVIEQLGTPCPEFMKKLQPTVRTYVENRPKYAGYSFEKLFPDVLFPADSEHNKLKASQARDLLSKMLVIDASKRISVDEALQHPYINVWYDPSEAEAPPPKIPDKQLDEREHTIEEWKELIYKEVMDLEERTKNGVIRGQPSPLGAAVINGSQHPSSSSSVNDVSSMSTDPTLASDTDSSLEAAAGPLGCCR
Ephrin type-A receptor 4 (Homo sapiens), sequence (P54764 whole entry, the tested form may be a part): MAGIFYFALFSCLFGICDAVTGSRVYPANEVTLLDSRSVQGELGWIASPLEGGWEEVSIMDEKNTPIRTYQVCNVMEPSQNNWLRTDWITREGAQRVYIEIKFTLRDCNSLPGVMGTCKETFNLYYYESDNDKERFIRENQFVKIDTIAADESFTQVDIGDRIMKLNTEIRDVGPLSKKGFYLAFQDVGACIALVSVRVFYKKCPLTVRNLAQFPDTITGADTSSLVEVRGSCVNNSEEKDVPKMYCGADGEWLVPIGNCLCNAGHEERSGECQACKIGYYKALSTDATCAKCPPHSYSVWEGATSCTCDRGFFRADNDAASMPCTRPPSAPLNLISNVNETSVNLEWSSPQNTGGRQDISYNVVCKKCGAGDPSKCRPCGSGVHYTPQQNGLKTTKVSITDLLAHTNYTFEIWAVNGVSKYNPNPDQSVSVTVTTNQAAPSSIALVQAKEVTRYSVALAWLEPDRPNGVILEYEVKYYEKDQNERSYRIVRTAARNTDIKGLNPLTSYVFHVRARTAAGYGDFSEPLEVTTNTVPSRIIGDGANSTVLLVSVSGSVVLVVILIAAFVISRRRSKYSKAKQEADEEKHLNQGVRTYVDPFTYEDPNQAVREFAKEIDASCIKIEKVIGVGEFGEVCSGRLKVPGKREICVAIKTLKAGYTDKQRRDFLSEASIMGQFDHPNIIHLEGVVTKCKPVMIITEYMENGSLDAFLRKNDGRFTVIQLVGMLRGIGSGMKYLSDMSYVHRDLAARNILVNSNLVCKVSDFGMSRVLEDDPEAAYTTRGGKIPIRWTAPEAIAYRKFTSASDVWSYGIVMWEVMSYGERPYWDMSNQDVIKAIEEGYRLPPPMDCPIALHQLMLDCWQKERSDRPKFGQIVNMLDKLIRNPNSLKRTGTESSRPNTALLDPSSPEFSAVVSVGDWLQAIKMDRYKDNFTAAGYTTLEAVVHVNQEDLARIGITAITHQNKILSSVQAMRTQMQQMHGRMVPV
Serine/threonine-protein kinase D1 (Homo sapiens), sequence (Q15139 whole entry, the tested form may be a part): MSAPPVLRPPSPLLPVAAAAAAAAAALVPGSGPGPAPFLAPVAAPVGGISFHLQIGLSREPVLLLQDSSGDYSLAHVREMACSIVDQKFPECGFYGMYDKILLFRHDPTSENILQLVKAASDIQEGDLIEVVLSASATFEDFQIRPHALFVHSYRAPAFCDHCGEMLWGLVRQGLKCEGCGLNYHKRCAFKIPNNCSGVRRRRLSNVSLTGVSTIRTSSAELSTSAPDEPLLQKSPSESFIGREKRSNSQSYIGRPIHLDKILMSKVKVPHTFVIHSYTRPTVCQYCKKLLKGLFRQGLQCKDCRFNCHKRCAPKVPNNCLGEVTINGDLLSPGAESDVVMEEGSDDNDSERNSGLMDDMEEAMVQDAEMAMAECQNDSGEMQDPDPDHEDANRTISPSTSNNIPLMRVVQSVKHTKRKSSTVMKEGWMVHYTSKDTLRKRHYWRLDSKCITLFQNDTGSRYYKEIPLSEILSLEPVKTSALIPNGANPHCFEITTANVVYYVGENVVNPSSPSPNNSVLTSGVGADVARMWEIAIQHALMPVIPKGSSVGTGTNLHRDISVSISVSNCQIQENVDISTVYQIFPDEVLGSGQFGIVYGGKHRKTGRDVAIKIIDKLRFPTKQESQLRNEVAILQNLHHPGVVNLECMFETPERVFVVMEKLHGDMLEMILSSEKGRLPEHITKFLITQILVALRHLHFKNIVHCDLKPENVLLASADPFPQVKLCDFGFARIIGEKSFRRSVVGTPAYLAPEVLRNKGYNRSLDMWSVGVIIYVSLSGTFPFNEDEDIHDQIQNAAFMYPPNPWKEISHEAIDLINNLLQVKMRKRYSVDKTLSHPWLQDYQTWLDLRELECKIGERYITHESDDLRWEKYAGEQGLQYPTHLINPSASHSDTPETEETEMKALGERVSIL
Serine/threonine-protein kinase Nek2 (Homo sapiens), sequence (P51955 whole entry): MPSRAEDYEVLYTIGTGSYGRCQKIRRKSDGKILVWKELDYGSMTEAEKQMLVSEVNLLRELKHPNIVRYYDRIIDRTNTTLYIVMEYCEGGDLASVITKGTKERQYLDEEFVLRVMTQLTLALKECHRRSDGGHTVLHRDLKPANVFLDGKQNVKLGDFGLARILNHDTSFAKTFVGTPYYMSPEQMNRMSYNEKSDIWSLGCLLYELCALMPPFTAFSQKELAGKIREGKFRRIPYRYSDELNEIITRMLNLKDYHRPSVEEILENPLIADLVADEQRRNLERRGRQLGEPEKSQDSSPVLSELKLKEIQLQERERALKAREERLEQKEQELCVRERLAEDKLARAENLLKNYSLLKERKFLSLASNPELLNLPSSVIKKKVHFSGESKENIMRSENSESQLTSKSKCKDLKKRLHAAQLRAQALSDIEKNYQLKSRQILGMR
Misshapen-like kinase 1 (Homo sapiens), sequence (Q8N4C8 whole entry, looked up, the tested form may be a part): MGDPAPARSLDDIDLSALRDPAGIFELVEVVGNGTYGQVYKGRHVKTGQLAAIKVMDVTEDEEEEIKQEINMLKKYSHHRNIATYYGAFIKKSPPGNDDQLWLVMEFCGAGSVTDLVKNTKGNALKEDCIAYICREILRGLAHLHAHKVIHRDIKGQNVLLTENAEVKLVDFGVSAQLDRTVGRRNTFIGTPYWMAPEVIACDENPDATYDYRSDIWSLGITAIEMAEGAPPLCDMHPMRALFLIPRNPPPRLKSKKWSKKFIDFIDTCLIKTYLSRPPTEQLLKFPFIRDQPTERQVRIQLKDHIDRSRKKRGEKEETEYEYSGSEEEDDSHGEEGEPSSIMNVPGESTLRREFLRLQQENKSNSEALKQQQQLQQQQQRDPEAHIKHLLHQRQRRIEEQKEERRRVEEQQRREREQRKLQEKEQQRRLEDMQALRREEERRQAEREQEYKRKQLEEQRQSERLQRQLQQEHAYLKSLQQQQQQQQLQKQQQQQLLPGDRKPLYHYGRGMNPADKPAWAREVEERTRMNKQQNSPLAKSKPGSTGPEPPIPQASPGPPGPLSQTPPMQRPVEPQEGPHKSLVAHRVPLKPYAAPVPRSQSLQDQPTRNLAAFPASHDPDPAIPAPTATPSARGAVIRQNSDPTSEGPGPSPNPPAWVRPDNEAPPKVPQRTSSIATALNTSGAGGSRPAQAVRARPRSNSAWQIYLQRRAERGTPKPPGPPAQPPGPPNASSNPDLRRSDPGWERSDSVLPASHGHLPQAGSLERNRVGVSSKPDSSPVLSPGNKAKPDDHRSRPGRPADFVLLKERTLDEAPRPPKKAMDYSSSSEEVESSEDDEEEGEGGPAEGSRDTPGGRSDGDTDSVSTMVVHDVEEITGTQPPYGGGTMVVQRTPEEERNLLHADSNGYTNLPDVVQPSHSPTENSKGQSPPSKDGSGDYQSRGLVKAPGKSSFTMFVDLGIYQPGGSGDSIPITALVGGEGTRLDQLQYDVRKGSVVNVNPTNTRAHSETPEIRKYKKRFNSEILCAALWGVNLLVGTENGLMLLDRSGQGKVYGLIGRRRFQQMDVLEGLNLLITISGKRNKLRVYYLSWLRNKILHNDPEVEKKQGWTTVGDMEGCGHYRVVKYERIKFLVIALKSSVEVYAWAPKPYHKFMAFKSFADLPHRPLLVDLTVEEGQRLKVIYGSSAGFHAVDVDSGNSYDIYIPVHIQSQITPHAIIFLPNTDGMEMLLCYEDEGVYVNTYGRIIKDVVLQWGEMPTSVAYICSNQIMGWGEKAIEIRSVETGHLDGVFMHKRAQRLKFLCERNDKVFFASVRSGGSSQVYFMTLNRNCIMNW
Mast/stem cell growth factor receptor Kit (Homo sapiens), sequence (P10721 whole entry, the tested form may be a part): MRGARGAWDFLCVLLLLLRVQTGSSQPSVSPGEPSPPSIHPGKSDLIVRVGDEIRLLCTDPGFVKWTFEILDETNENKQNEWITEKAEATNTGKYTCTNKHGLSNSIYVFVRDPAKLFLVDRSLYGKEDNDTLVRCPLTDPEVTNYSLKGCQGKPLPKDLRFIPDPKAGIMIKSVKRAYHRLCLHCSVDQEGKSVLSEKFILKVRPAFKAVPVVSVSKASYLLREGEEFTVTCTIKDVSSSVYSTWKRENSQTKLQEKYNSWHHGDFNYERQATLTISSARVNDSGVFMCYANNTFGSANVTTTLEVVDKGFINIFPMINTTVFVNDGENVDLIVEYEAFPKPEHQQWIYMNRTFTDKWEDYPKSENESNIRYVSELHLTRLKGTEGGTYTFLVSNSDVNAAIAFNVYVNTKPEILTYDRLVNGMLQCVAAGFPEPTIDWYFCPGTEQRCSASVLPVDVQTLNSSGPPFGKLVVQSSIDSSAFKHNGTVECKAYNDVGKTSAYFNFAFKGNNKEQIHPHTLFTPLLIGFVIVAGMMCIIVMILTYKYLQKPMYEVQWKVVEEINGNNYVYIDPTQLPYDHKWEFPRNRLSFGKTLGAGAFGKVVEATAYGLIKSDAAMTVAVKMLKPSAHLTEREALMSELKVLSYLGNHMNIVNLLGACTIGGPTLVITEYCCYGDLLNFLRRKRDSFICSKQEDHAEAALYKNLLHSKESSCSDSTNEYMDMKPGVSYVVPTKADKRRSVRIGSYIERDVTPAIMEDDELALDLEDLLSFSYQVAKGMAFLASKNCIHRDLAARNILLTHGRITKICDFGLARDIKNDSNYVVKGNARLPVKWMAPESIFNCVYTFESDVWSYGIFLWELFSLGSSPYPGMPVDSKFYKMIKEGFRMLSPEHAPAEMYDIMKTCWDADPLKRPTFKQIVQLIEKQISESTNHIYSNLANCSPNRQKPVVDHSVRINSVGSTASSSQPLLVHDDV

`CNC(=O)Nc1ccc(-c2nc(N3CC4CCC(C3)O4)c3cnn(C4CCC5(CC4)OCCO5)c3n2)cc1` was tested, and the inhibition [1] was 3%, the inhibition [2] was -1% and the inhibition (mTORC2 (Homo sapiens)) was “inactive”. It also gave an inhibition [3] of 0%, an inhibition [4] of 14% and an inhibition [5] of 0%. For the same molecule, the inhibition [6] was 10%, the IC50 (A498) was greater than 20 µM and the inhibition [7] was 10%. The Activity (MDA-MB-361 [8]) was 6.2%, the inhibition [9] was 2% and the inhibition [10] was 12%. The Activity (MDA-MB-361 [11]) was “Active”.
